# Source: US9850283B2, “Macrocyclic inhibitors of the PD-1/PD-L1 and CD80(B7-1)/PD-L1 protein/protein interactions” (BRISTOL-MYERS SQUIBB COMPANY, priority 2013, dated 2017)
# Positions of bridges follow the written chain, without caps; N, C: chain ends. Non-standard residues stand in square brackets, D forms with d. Residues, ends and D or L forms follow the SMILES beside them. Hyp = O=C(O)[C@@H]1C[C@@H](O)CN1; NMeNle = CCCC[C@H](NC)C(=O)O; NMeA = CN[C@@H](C)C(=O)O; Orn = NCCC[C@H](N)C(=O)O; Dab = NCC[C@H](N)C(=O)O; Dap = NC[C@H](N)C(=O)O
# Assays:
# Human PD-L1/PD-1 = target: T1, Human PD-L1/PD-1 (Homo sapiens, UniProt Q9NZQ7); assay: HTRF PD-1-Ig/PD-L1-His binding assay (human PD-L1); details: cluster symbol; read-out: HTRF IC50 cluster
# T1 construct: made in house; host or cells: HEK293T
# In short: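 Soluble Fc-fused PD-1 and His-tagged PD-L1 (truncated before the transmembrane region) were combined in dPBS with 0.1% (w/v) BSA and 0.05% (v/v) Tween-20. Binding was read by HTRF using europium cryptate anti-Ig antibody (1 nM final) and APC anti-His antibody (20 nM final).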
# [1] = target: T2, LK35.2-hPD-L1 cells / PE-labeled PD-1-Ig (Homo sapiens, UniProt Q9NZQ7); assay: LK35.2-hPD-L1 cell binding high-content screening assay; assay type: cell-based; details: cell binding assay, cell line not given; cluster symbol; read-out: CBA IC50 cluster
# T2 construct: expressed in transfected cells; host or cells: LK35.2 mouse B cell line
# In short: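 Fluorescent PD-1-Ig binding to PD-L1-expressing LK35.2 cells, imaged after washing. Conditions: 1 nM PE-PD-1-Ig, 37 °C, 1 h, RPMI with 10% fetal calf serum.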
# T1 sequence (Q9NZQ7 with tags, fused parts or gaps): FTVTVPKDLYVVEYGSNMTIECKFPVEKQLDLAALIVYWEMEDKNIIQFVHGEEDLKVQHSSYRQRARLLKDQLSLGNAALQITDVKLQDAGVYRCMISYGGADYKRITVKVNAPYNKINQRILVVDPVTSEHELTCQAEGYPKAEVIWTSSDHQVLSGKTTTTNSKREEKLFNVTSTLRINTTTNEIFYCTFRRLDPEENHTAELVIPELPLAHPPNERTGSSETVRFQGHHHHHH
# T2 sequence (Q9NZQ7 19-290): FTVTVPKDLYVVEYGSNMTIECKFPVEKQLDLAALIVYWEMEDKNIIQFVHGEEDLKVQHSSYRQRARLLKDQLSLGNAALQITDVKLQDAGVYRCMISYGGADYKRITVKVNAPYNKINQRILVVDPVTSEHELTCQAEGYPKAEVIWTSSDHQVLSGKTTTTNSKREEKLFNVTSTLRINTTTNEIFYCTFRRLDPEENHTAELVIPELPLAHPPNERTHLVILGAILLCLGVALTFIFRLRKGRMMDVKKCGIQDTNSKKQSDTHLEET
Structure (SMILES),IC50 (Human PD-L1/PD-1),IC50 [1]
CCCC[C@H]1C(=O)N(C)[C@@H](CCCC)C(=O)N[C@@H](CCCNC(=N)N)C(=O)N[C@H](C(=O)NCC(N)=O)CSCC(=O)N[C@@H](Cc2ccc(O)cc2)C(=O)N(C)[C@@H](C)C(=O)N[C@@H](CCCCN)C(=O)N2CCC[C@H]2C(=O)N[C@@H](Cc2c[nH]cn2)C(=O)N[C@@H](CC(=O)O)C(=O)N2C[C@H](O)C[C@H]2C(=O)N[C@@H](Cc2c[nH]c3ccccc23)C(=O)N[C@@H](CO)C(=O)N[C@@H](Cc2c[nH]c3ccccc23)C(=O)N1C [Example 5102] ({CH2CO}-Y[NMeA]KPHD[Hyp]WSW[NMeNle][NMeNle]RCG-NH2; thioether N-14),6.76 to 30.3 nM,4.78 to 72.9 nM
CCCC[C@H]1C(=O)N(C)[C@@H](CCCC)C(=O)N[C@@H](CCN)C(=O)N[C@H](C(=O)NCC(N)=O)CSCC(=O)N[C@@H](Cc2ccc(O)cc2)C(=O)N(C)[C@@H](C)C(=O)N[C@@H](CCN)C(=O)N2CCC[C@H]2C(=O)N[C@@H](Cc2c[nH]cn2)C(=O)N[C@@H](CCC(=O)O)C(=O)N2C[C@H](O)C[C@H]2C(=O)N[C@@H](Cc2c[nH]c3ccccc23)C(=O)N[C@@H](CCN)C(=O)N[C@@H](Cc2c[nH]c3ccccc23)C(=O)N1C [Example 5104] ({CH2CO}-Y[NMeA][Dab]PHE[Hyp]W[Dab]W[NMeNle][NMeNle][Dab]CG-NH2; thioether N-14),0.385 to 6.74 nM,0.158 to 4.71 nM
CCCC[C@H]1C(=O)N(C)[C@@H](CCCC)C(=O)N[C@@H](CCCNC(=N)N)C(=O)N[C@H](C(=O)NCC(N)=O)CSCC(=O)N[C@@H](Cc2ccc(O)cc2)C(=O)N(C)[C@@H](C)C(=O)N[C@@H](CCCN)C(=O)N2CCC[C@H]2C(=O)N[C@@H](Cc2c[nH]cn2)C(=O)N[C@@H](CC(=O)O)C(=O)N2C[C@H](O)C[C@H]2C(=O)N[C@@H](Cc2c[nH]c3ccccc23)C(=O)N[C@@H](CO)C(=O)N[C@@H](Cc2c[nH]c3ccccc23)C(=O)N1C [Example 5105] ({CH2CO}-Y[NMeA][Orn]PHD[Hyp]WSW[NMeNle][NMeNle]RCG-NH2; thioether N-14),6.76 to 30.3 nM,4.78 to 72.9 nM
CCCC[C@H]1C(=O)N(C)[C@@H](CCCC)C(=O)N[C@@H](CC(C)C)C(=O)N[C@H](C(=O)NCC(N)=O)CSCC(=O)N[C@@H](Cc2ccc(O)cc2)C(=O)N(C)[C@@H](C)C(=O)N[C@@H](CCN)C(=O)N2CCC[C@H]2C(=O)N[C@@H](Cc2c[nH]cn2)C(=O)N[C@@H](CCC(=O)O)C(=O)N2C[C@H](O)C[C@H]2C(=O)N[C@@H](Cc2c[nH]c3ccccc23)C(=O)N[C@@H](C(C)C)C(=O)N[C@@H](Cc2c[nH]c3ccccc23)C(=O)N1C [Example 5107] ({CH2CO}-Y[NMeA][Dab]PHE[Hyp]WVW[NMeNle][NMeNle]LCG-NH2; thioether N-14),6.76 to 30.3 nM,4.78 to 72.9 nM
CCCC[C@H]1C(=O)N(C)[C@@H](CCCC)C(=O)N[C@@H](CO)C(=O)N[C@H](C(=O)NCC(N)=O)CSCC(=O)N[C@@H](Cc2ccc(O)cc2)C(=O)N(C)[C@@H](C)C(=O)N[C@@H](CCN)C(=O)N2CCC[C@H]2C(=O)N[C@@H](Cc2c[nH]cn2)C(=O)N[C@@H](CCC(=O)O)C(=O)N2C[C@H](O)C[C@H]2C(=O)N[C@@H](Cc2c[nH]c3ccccc23)C(=O)N[C@@H](CO)C(=O)N[C@@H](Cc2c[nH]c3ccccc23)C(=O)N1C [Example 5108] ({CH2CO}-Y[NMeA][Dab]PHE[Hyp]WSW[NMeNle][NMeNle]SCG-NH2; thioether N-14),6.76 to 30.3 nM,4.78 to 72.9 nM
CCCC[C@H]1C(=O)N(C)[C@@H](CCCC)C(=O)N[C@@H](CC(C)C)C(=O)N[C@H](C(=O)NCC(N)=O)CSCC(=O)N[C@@H](Cc2ccc(O)cc2)C(=O)N(C)[C@@H](C)C(=O)N[C@@H](CC(N)=O)C(=O)N2CCC[C@H]2C(=O)N[C@@H](Cc2c[nH]cn2)C(=O)N[C@@H](CCC(N)=O)C(=O)N2C[C@H](O)C[C@H]2C(=O)N[C@@H](Cc2c[nH]c3ccccc23)C(=O)NCC(=O)N[C@@H](Cc2c[nH]c3ccccc23)C(=O)N1C [Example 5109] ({CH2CO}-Y[NMeA]NPHQ[Hyp]WGW[NMeNle][NMeNle]LCG-NH2; thioether N-14),0.385 to 6.74 nM,0.158 to 4.71 nM
CCCC[C@H]1C(=O)N(C)[C@@H](CCCC)C(=O)N[C@@H](CCCNC(=N)N)C(=O)N[C@H](C(=O)NCC(N)=O)CSCC(=O)N[C@@H](Cc2ccc(O)cc2)C(=O)N(C)[C@@H](C)C(=O)N[C@@H](CC(=O)O)C(=O)N2CCC[C@H]2C(=O)N[C@@H](Cc2c[nH]cn2)C(=O)N[C@@H](CCCCN)C(=O)N2C[C@H](O)C[C@H]2C(=O)N[C@@H](Cc2c[nH]c3ccccc23)C(=O)N[C@@H](CCCCN)C(=O)N[C@@H](Cc2c[nH]c3ccccc23)C(=O)N1C [Example 5110] ({CH2CO}-Y[NMeA]DPHK[Hyp]WKW[NMeNle][NMeNle]RCG-NH2; thioether N-14),0.385 to 6.74 nM,0.158 to 4.71 nM

# Other lines, results leading:
IC50 (Human PD-L1/PD-1),IC50 [1],Structure (SMILES)
6.76 to 30.3 nM,0.158 to 4.71 nM,CCCC[C@H]1C(=O)N(C)[C@@H](CCCC)C(=O)N[C@@H](CCC(=O)O)C(=O)N[C@H](C(=O)NCC(N)=O)CSCC(=O)N[C@@H](Cc2ccc(O)cc2)C(=O)N(C)[C@@H](C)C(=O)N[C@@H](CC(N)=O)C(=O)N2CCC[C@H]2C(=O)N[C@@H](Cc2c[nH]cn2)C(=O)N[C@@H](CCCCN)C(=O)N2C[C@H](O)C[C@H]2C(=O)N[C@@H](Cc2c[nH]c3ccccc23)C(=O)N[C@@H](CCCCN)C(=O)N[C@@H](Cc2c[nH]c3ccccc23)C(=O)N1C [Example 5100] ({CH2CO}-Y[NMeA]NPHK[Hyp]WKW[NMeNle][NMeNle]ECG-NH2; thioether N-14)
0.385 to 6.74 nM,0.158 to 4.71 nM,CCCC[C@H]1C(=O)N(C)[C@@H](CCCC)C(=O)N[C@@H](CN)C(=O)N[C@H](C(=O)NCC(N)=O)CSCC(=O)N[C@@H](Cc2ccc(O)cc2)C(=O)N(C)[C@@H](C)C(=O)N[C@@H](CC(=O)O)C(=O)N2CCC[C@H]2C(=O)N[C@@H](Cc2c[nH]cn2)C(=O)N[C@@H](CCC(N)=O)C(=O)N2C[C@H](O)C[C@H]2C(=O)N[C@@H](Cc2c[nH]c3ccccc23)C(=O)N[C@@H](CO)C(=O)N[C@@H](Cc2c[nH]c3ccccc23)C(=O)N1C [Example 5101] ({CH2CO}-Y[NMeA]DPHQ[Hyp]WSW[NMeNle][NMeNle][Dap]CG-NH2; thioether N-14)
6.76 to 30.3 nM,4.78 to 72.9 nM,CCCC[C@H]1C(=O)N(C)[C@@H](CCCC)C(=O)N[C@@H](CC(=O)O)C(=O)N[C@H](C(=O)NCC(N)=O)CSCC(=O)N[C@@H](Cc2ccc(O)cc2)C(=O)N(C)[C@@H](C)C(=O)N[C@@H](CC(N)=O)C(=O)N2CCC[C@H]2C(=O)N[C@@H](Cc2c[nH]cn2)C(=O)N[C@@H](CCC(N)=O)C(=O)N2C[C@H](O)C[C@H]2C(=O)N[C@@H](Cc2c[nH]c3ccccc23)C(=O)N[C@@H](CO)C(=O)N[C@@H](Cc2c[nH]c3ccccc23)C(=O)N1C [Example 5103] ({CH2CO}-Y[NMeA]NPHQ[Hyp]WSW[NMeNle][NMeNle]DCG-NH2; thioether N-14)
0.385 to 6.74 nM,0.158 to 4.71 nM,CCCC[C@H]1C(=O)N(C)[C@@H](CCCC)C(=O)N[C@@H](CCC(=O)O)C(=O)N[C@H](C(=O)NCC(N)=O)CSCC(=O)N[C@@H](Cc2ccc(O)cc2)C(=O)N(C)[C@@H](C)C(=O)N[C@@H](CC(N)=O)C(=O)N2CCC[C@H]2C(=O)N[C@@H](Cc2c[nH]cn2)C(=O)N[C@@H](CCC(N)=O)C(=O)N2C[C@H](O)C[C@H]2C(=O)N[C@@H](Cc2c[nH]c3ccccc23)C(=O)N[C@@H](CCCCN)C(=O)N[C@@H](Cc2c[nH]c3ccccc23)C(=O)N1C [Example 5106] ({CH2CO}-Y[NMeA]NPHQ[Hyp]WKW[NMeNle][NMeNle]ECG-NH2; thioether N-14)
6.76 to 30.3 nM,4.78 to 72.9 nM,CCCC[C@H]1C(=O)N(C)[C@@H](CCCC)C(=O)N[C@@H](CCC(=O)O)C(=O)N[C@H](C(=O)NCC(N)=O)CSCC(=O)N[C@@H](Cc2ccc(O)cc2)C(=O)N(C)[C@@H](C)C(=O)N[C@@H](CCN)C(=O)N2CCC[C@H]2C(=O)N[C@@H](Cc2c[nH]cn2)C(=O)N[C@@H](CCC(=O)O)C(=O)N2C[C@H](O)C[C@H]2C(=O)N[C@@H](Cc2c[nH]c3ccccc23)C(=O)N[C@@H](CO)C(=O)N[C@@H](Cc2c[nH]c3ccccc23)C(=O)N1C [Example 5111] ({CH2CO}-Y[NMeA][Dab]PHE[Hyp]WSW[NMeNle][NMeNle]ECG-NH2; thioether N-14)
0.385 to 6.74 nM,0.158 to 4.71 nM,CCCC[C@H]1C(=O)N(C)[C@@H](CCCC)C(=O)N[C@@H](CCC(=O)O)C(=O)N[C@H](C(=O)NCC(N)=O)CSCC(=O)N[C@@H](Cc2ccc(O)cc2)C(=O)N(C)[C@@H](C)C(=O)N[C@@H](CCN)C(=O)N2CCC[C@H]2C(=O)N[C@@H](Cc2c[nH]cn2)C(=O)N[C@@H](CCC(=O)O)C(=O)N2C[C@H](O)C[C@H]2C(=O)N[C@@H](Cc2c[nH]c3ccccc23)C(=O)N[C@@H](CCCCN)C(=O)N[C@@H](Cc2c[nH]c3ccccc23)C(=O)N1C [Example 5112] ({CH2CO}-Y[NMeA][Dab]PHE[Hyp]WKW[NMeNle][NMeNle]ECG-NH2; thioether N-14)
0.385 to 6.74 nM,0.158 to 4.71 nM,CCCC[C@H]1C(=O)N(C)[C@@H](CCCC)C(=O)N[C@@H](CCCNC(=N)N)C(=O)N[C@H](C(=O)NCC(N)=O)CSCC(=O)N[C@@H](Cc2ccc(O)cc2)C(=O)N(C)[C@@H](C)C(=O)N[C@@H](CCCN)C(=O)N2CCC[C@H]2C(=O)N[C@@H](Cc2c[nH]cn2)C(=O)N[C@@H](CCC(=O)O)C(=O)N2C[C@H](O)C[C@H]2C(=O)N[C@@H](Cc2c[nH]c3ccccc23)C(=O)N[C@@H](CO)C(=O)N[C@@H](Cc2c[nH]c3ccccc23)C(=O)N1C [Example 5113] ({CH2CO}-Y[NMeA][Orn]PHE[Hyp]WSW[NMeNle][NMeNle]RCG-NH2; thioether N-14)
